US5405849A, “Angiotensin II receptor blocking 2,3,6 substituted quinazolinones” (American Cyanamid Company, priority 1993, dated 1995)
Where a name gives a salt, the structure may show the parent alone.

Test system: angiotensin II (AII) vasopressor response
Test: AII challenge: antagonism of the vasopressor response of angiotensin II in conscious Okamoto-Aoki SHR
Format: in vivo, rat (Okamoto-Aoki SHR)
Conditions: for inhibition in vivo at 5 mg/kg / inhibition in vivo at 1 mg/kg / inhibition in vivo at 2 mg/kg: Rattus norvegicus; for inhibition in vivo at 5 mg/kg: po
Source text: Conscious Male Okamoto-Aoki SHR, 16-20 weeks old, weighing approximately 330 g are purchased from Charles River Labs (Wilmington, Mass.). Conscious rats are restrained in a supine position with elastic tape. The area at the base of the tail is locally anesthetized by subcutaneous infiltration with 2% procaine. The ventral caudal artery and vein are isolated, and a cannula made of polyethylene (PE) 10-20 tubing (fused together by heat) is passed into the lower abdominal aorta and vena cava, respectively. The cannula is secured, heparinized (1,000 I.U./ml), sealed and the wound is closed. The animals are placed in plastic restraining cages in an upright position. The cannula is attached to a Statham P23Db pressure transducer, and pulsatile blood pressure is recorded to 10-15 minutes with a Gould Brush recorder.
Angiotensin II (human sequence, Sigma Chem. Co., St. Louis, Mo.) of 0.05 and 0.1 ug/kg i.v. is injected into all rats (predosing response). Then a test compound, vehicle or a known angiotensin II antagonist is administered i.v., i.p. or orally to each set of rats. […] The vasopressor response of angiotensin II is measured for the increase in systolic blood pressure in mmHg. The percentage of antagonism or blockade of the vasopressor response of angiotensin II by a compound is calculated using the vasopressor response (increase in systolic blood pressure) of angiotensin II of each rat predosing the compound as 100%.

CCCCc1nc2ccc(C(O)CC)cc2c(=O)n1Cc1ccc(-c2ccccc2-c2nnn[nH]2)cc1 (centres unmarked) [Example 52] was tested, and the “Response change (systolic BP increase to AII)” value (5 mg/kg oral, AII .05 ug/kg, 30 min) was 25 mmHg, the “Response change (systolic BP increase to AII)” value (5 mg/kg oral, AII .05 ug/kg, 150 min) was 15 mmHg and the inhibition in vivo at 5 mg/kg (0.5 h, 5 mg/kg oral, AII .05 ug/kg, 30 min) was 52%. It also gave an inhibition in vivo at 5 mg/kg (0.5 h, 5 mg/kg oral, AII .1 ug/kg, 30 min) of 43%, an inhibition in vivo at 5 mg/kg (1.5 h, 5 mg/kg oral, AII .05 ug/kg, 90 min) of 66% and an inhibition in vivo at 5 mg/kg (1.5 h, 5 mg/kg oral, AII .1 ug/kg, 90 min) of 63%. It also gave an inhibition in vivo at 5 mg/kg (2.5 h, 5 mg/kg oral, AII .05 ug/kg, 150 min) of 71% and an inhibition in vivo at 5 mg/kg (2.5 h, 5 mg/kg oral, AII .1 ug/kg, 150 min) of 60%.
In the case of CCCCc1nc2ccc(C(C)(C)O)cc2c(=O)n1Cc1ccc(-c2ccccc2-c2nnn[nH]2)cc1 [Example 61, 2-Butyl-6-(1-hydroxy-1-methylethyl)-3-[[2'-(1H-(tetrazol-5-yl) [1,1'-biphenyl]-4-yl]methyl]-4(3H)-quinazolinone monosodium salt], the “Response change (systolic BP increase to AII)” value (1 mg/kg iv, AII .05 ug/kg, 30 min) is reported as 40 mmHg, the “Response change (systolic BP increase to AII)” value (1 mg/kg iv, AII .05 ug/kg, 45 min) is reported as 25 mmHg and the “Response change (systolic BP increase to AII)” value (1 mg/kg iv, AII .05 ug/kg, 90 min) is reported as 45 mmHg. For the same compound, the “Response change (systolic BP increase to AII)” value (1 mg/kg iv, AII .1 ug/kg, 30 min) was 55 mmHg, the “Response change (systolic BP increase to AII)” value (1 mg/kg iv, AII .1 ug/kg, 45 min) was 40 mmHg and the “Response change (systolic BP increase to AII)” value (1 mg/kg iv, AII .1 ug/kg, 90 min) was 65 mmHg. For the same compound, the “Response change (systolic BP increase to AII)” value (2 mg/kg iv, AII .025 ug/kg, 30 min) was 0 mmHg, the “Response change (systolic BP increase to AII)” value (2 mg/kg iv, AII .025 ug/kg, 90 min) was 0 mmHg and the “Response change (systolic BP increase to AII)” value (2 mg/kg iv, AII .025 ug/kg, 150 min) was 0 mmHg. The “Response change (systolic BP increase to AII)” value (2 mg/kg iv, AII .05 ug/kg, 30 min) was 0 mmHg, the “Response change (systolic BP increase to AII)” value (2 mg/kg iv, AII .05 ug/kg, 90 min) was 0 mmHg and the “Response change (systolic BP increase to AII)” value (2 mg/kg iv, AII .05 ug/kg, 120 min) was 25 mmHg. The “Response change (systolic BP increase to AII)” value (2 mg/kg iv, AII .05 ug/kg, 180 min) was 40 mmHg, the “Response change (systolic BP increase to AII)” value (2 mg/kg iv, AII .1 ug/kg, 30 min) was 0 mmHg and the “Response change (systolic BP increase to AII)” value (2 mg/kg iv, AII .1 ug/kg, 90 min) was 0 mmHg. For the same compound, the “Response change (systolic BP increase to AII)” value (2 mg/kg iv, AII .1 ug/kg, 120 min) was 50 mmHg, the “Response change (systolic BP increase to AII)” value (2 mg/kg iv, AII .1 ug/kg, 180 min) was 45 mmHg and the inhibition in vivo at 1 mg/kg (0.5 h, 1 mg/kg iv, AII .05 ug/kg, 30 min) was 20%. The inhibition in vivo at 1 mg/kg (0.75 h, 1 mg/kg iv, AII .05 ug/kg, 45 min) was 50%, the inhibition in vivo at 2 mg/kg (2.5 h, 2 mg/kg iv, AII .05 ug/kg, 150 min) was 30% and the inhibition in vivo at 1 mg/kg (iv, 0.5 h, 1 mg/kg iv, AII .1 ug/kg, 30 min) was 8%. It also gave an inhibition in vivo at 2 mg/kg (iv, 0.5 h, 2 mg/kg iv, AII .025 ug/kg, 30 min) of 100%, an inhibition in vivo at 2 mg/kg (iv, 0.5 h, 2 mg/kg iv, AII .05 ug/kg, 30 min) of 100% and an inhibition in vivo at 2 mg/kg (iv, 0.5 h, 2 mg/kg iv, AII .1 ug/kg, 30 min) of 100%. For the same compound, the inhibition in vivo at 1 mg/kg (iv, 0.75 h, 1 mg/kg iv, AII .1 ug/kg, 45 min) was 33%, the inhibition in vivo at 1 mg/kg (iv, 1.5 h, 1 mg/kg iv, AII .05 ug/kg, 90 min) was 10% and the inhibition in vivo at 1 mg/kg (iv, 1.5 h, 1 mg/kg iv, AII .1 ug/kg, 90 min) was 8%. The inhibition in vivo at 2 mg/kg (iv, 1.5 h, 2 mg/kg iv, AII .025 ug/kg, 90 min) was 100%, the inhibition in vivo at 2 mg/kg (iv, 1.5 h, 2 mg/kg iv, AII .05 ug/kg, 90 min) was 100% and the inhibition in vivo at 2 mg/kg (iv, 1.5 h, 2 mg/kg iv, AII .1 ug/kg, 90 min) was 100%. It also gave an inhibition in vivo at 2 mg/kg (iv, 2 h, 2 mg/kg iv, AII .05 ug/kg, 120 min) of 50%, an inhibition in vivo at 2 mg/kg (iv, 2 h, 2 mg/kg iv, AII .1 ug/kg, 120 min) of 17% and an inhibition in vivo at 2 mg/kg (iv, 2.5 h, 2 mg/kg iv, AII .025 ug/kg, 150 min) of 100%. The inhibition in vivo at 2 mg/kg (iv, 2.5 h, 2 mg/kg iv, AII .05 ug/kg, 150 min) was 100%, the inhibition in vivo at 2 mg/kg (iv, 3 h, 2 mg/kg iv, AII .05 ug/kg, 180 min) was 20% and the inhibition in vivo at 2 mg/kg (iv, 3 h, 2 mg/kg iv, AII .1 ug/kg, 180 min) was 25%.
